Molecular target: T1, GST-tagged ROR gamma ligand binding domain (LBD) (Homo sapiens, UniProt P51449)
T1 construct: purchased Invitrogen
T1 sequence (P51449 269-508 limits assumed): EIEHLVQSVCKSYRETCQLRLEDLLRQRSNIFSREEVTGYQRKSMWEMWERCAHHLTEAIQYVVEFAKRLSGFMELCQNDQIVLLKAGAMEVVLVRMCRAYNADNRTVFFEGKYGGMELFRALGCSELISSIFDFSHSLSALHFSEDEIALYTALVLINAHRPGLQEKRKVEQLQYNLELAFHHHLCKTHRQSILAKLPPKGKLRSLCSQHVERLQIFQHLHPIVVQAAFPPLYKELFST
Experiment: TR-FRET assay for ROR gamma (LanthaScreen co-activator peptide recruitment)
Type: biochemical
Settings: for inhibition at 1 µM: compound concentration 1 μM; for inhibition at 1 µM / inhibition at 10 µM: TR-FRET ratio 520/495, percent of control; for inhibition at 10 µM: compound concentration 10 μM; for IC50: from dose response curve, nonlinear regression, read-out: IC50 range
Procedure, shortened: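 Antagonist-mode co-activator recruitment: 10 nM GST-RORγ LBD with compound (4% DMSO final) in 25 mM HEPES pH 7.4, 100 mM NaCl, 5 mM DTT, 0.01% BSA, 1 h at 22° C.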

SMILES	inhibition at 1 µM	inhibition at 10 µM	IC50
Cc1ccc([C@@H](C)Oc2nccnc2-c2ccc(NC(=O)Cc3ccc(C(F)(F)C(C)O)cc3)cc2)c(Cl)c1 (stereo partly drawn) [Example 88, N-(4-(3-((R)-1-(2-Chloro-4-methylphenyl)ethoxy)pyrazin-2-yl)phenyl)-2-(4-(1,1-difluoro-2-hydroxypropyl)phenyl)acetamide]	87.4%	85.5%	< 50 nM
CCC(F)(F)c1ccc(CC(=O)Nc2ccc(-c3nccnc3NCc3ccccc3)cc2)cc1 [Example 57, N-(4-(3-(Benzylamino)pyrazin-2-yl)phenyl)-2-(4-(1,1-difluoropropyl)phenyl)acetamide]	69.4%	85.2%	
CCC(F)(F)c1ccc(CC(=O)Nc2ccc(-c3nccnc3OCc3c(C)noc3C)cc2)cc1 [Example 89, 2-(4-(1,1-Difluoropropyl)phenyl)-N-(4-(3-((3,5-dimethylisoxazol-4-yl)methoxy)pyrazin-2-yl)phenyl)acetamide]	58.8%	74.6%	
CC(O)C(F)(F)c1ccc(CC(=O)Nc2ccc(-c3nccnc3N[C@@H](C)c3ccccc3Cl)cc2)cc1 (stereo partly drawn) [Example 68, N-(4-(3-(((S)-1-(2-Chlorophenyl)ethyl)amino)pyrazin-2-yl)phenyl)-2-(4-(1,1-difluoro-2-hydroxypropyl)phenyl)acetamide]	93.5%	96.9%	< 50 nM
CCC(F)(F)c1ccc(CC(=O)Nc2ccc(-c3nccnc3N[C@@H](C)c3cccc(Cl)c3)cc2)cc1 [Example 64, (S)-N-(4-(3-((1-(3-Chlorophenyl)ethyl)amino)pyrazin-2-yl)phenyl)-2-(4-(1,1-difluoropropyl)phenyl)acetamide]	76.2%	84.9%	100 to 500 nM
CC(O)C(F)(F)c1ccc(CC(=O)Nc2ccc(-c3nccnc3N3CCN(C(=O)C4CC4)CC3)cc2)cc1 (stereo not shown) [Example 54, N-(4-(3-(4-(Cyclopropanecarbonyl)piperazin-1-yl)pyrazin-2-yl)phenyl)-2-(4-(1,1-difluoro-2-hydroxypropyl)phenyl)acetamide]	23.1%	42.4%	
CCC(F)(F)c1ccc(CC(=O)Nc2ccc(-c3ccncc3-c3ccc(Cl)cc3)cc2)cc1 [Example 46, N-(4-(3-(4-Chlorophenyl)pyridin-4-yl)phenyl)-2-(4-(1,1-difluoropropyl)phenyl)acetamide]	70%	77.1%	
CCC(F)(F)c1ccc(CC(=O)Nc2ccc(-c3nccnc3N[C@H](C)c3ccccc3)cc2)cc1 [Example 59, (R)-2-(4-(1,1-Difluoropropyl)phenyl)-N-(4-(3-((1-phenylethyl)amino)pyrazin-2-yl)phenyl)acetamide]	58.6%	79.7%	
CCC(F)(F)c1ccc(CC(=O)Nc2ccc(-c3nccnc3OC(C)c3ccccc3C3CC3)cc2)cc1 (stereo not shown) [Example 81, N-(4-(3-(1-(2-Cyclopropylphenyl)ethoxy)pyrazin-2-yl)phenyl)-2-(4-(1,1-difluoropropyl)phenyl)acetamide]	83.2%	88.3%	100 to 500 nM
CCC(F)(F)c1ccc(CC(=O)Nc2ccc(-c3nccnc3O[C@H](C)c3ccccc3)cc2)cc1 [Example 79, (R)-2-(4-(1,1-Difluoropropyl)phenyl)-N-(4-(3-(1-phenylethoxy)pyrazin-2-yl)phenyl)acetamide]	69.5%	85.8%	100 to 500 nM
Cc1noc(C)c1CCOc1nccnc1-c1ccc(NC(=O)Cc2ccc(C(F)(F)C(C)O)cc2)cc1 (stereo not shown) [Example 90, 2-(4-(1,1-Difluoro-2-hydroxypropyl)phenyl)-N-(4-(3-(2-(3,5-dimethylisoxazol-4-yl)ethoxy)pyrazin-2-yl)phenyl)acetamide]	90.7%	93.9%	< 50 nM
CCC(F)(F)c1ccc(CC(=O)Nc2ccc(-c3nccnc3-c3ccc(Cl)cc3)cc2F)cc1 [Example 26, N-(4-(3-(4-Chlorophenyl)pyrazin-2-yl)-2-fluorophenyl)-2-(4-(1,1-difluoropropyl)phenyl)acetamide]	71.9%	79.6%	100 to 500 nM

Source: patent publication US10344024B2, “Compounds as ROR gamma modulators” (Glenmark Pharmaceuticals S.A., priority 2015, dated 2019)
